Among the data in patent US6046235A, “Sulfur-containing amino acid derivatives” (Santen Pharmaceutical Co., Ltd., priority 1996, dated 2000) are IC50 values, retold here.

In this assay the target is T1, LTA4 hydrolase (Cavia porcellus, UniProt P19602).
T1 construct: Lungs were excised from a Hartley guinea pig; from tissue; host or cells: Hartley guinea pig lung, 100,000×g supernatant, 40-70% ammonium sulfate fraction, dialyzed
T1 sequence (P19602 1-611): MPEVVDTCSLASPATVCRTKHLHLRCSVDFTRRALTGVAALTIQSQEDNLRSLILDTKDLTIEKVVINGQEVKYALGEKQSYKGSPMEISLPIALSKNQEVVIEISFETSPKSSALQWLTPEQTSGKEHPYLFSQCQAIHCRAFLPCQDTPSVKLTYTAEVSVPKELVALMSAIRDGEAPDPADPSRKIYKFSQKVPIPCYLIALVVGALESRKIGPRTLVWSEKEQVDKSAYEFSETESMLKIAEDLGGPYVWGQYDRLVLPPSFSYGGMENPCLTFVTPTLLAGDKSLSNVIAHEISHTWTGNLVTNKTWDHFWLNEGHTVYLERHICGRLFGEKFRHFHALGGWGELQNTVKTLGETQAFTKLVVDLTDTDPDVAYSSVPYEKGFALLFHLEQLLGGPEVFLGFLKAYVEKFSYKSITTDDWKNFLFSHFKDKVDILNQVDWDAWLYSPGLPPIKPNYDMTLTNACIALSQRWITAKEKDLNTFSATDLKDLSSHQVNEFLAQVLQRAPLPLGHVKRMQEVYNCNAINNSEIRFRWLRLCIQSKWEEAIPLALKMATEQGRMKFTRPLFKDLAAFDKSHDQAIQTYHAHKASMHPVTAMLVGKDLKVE
Description: LTA4 hydrolase inhibition (LTB4 formed from LTA4, guinea pig lung enzyme preparation). The format is biochemical. The following applies: Table 2; guinea pig lung enzyme preparation; LTA4 63 μM; 37° C., one minute; pH 7.8; read-out: IC50 (concentration required to inhibit LTA4 hydrolase by 50%). How it is done: Effects of the present compounds on LTA4 hydrolase were examined according to the method described in the literature.
Lungs were excised from a Hartley guinea pig (body weight: 330 g). The lungs were homogenized in phosphoric acid buffer (50 mM, pH 7.4, containing 1 mM ethylenediaminetetraacetic acid (EDTA) and 1 mM dithiothreitol (DTT) having weight three times that of the lungs under ice-cooling. The homogenate was centrifuged at low speed (800×g) for 20 minutes, centrifuged at high speed (10,000×g) for 20 minutes and ultracentrifuged (100,000×g) for 60 minutes to give a supernatant. The supernatant was brought to 40% saturation by adding a saturated aqueous ammonium sulfate solution (pH 7.0-7.2, containing 1 mM DTT) dropwise under ice-cooling and centrifuged at high speed (10,000×g) for 20 minutes. The resulting supernatant was brought to 70% saturation by adding a saturated aqueous ammonium sulfate solution (pH 7.0-7.2, containing 1 mM DTT) dropwise and centrifuged at high speed (10,000×g) for 20 minutes. The obtained pellet was dissolved in 2 ml of Tris-acetic acid buffer (20 mM, pH 7.8, containing 1 mM DTT) and dialyzed in 2 liters of the solution to give the enzyme preparation.
LTA4 used, which is the substrate, was prepared by hydrolyzing LTA4 methyl ester and dissolved in ethanol.
In order to examine effects of the present compounds on the enzyme preparation, reactions were performed under the following condition using mixed solutions consisting of the composition shown in Table 1.
HEPES buffer 50 mM, pH 7.8
Enzyme preparation 0.4-0.6 mg protein
Aqueous DTT solution 3 mM
The above-mentioned solution (50 μl ) was incubated at 37° C. for one minute. To the reaction mixture was added 100 μl of a mixed liquid of acetonitrile-ethanol-acetic acid (150:50:3, volume ratio) under ice-cooling. The mixture was allowed to stand at -20° C. for 30 minutes and centrifuged at high speed (10,000×g) for five minutes to give a supernatant. An amount of LTB4 produced in the supernatant was measured by high-speed liquid chromatography.
The degree of the inhibitory effect of each test compound on LTA4 hydrolase is expressed by the inhibition rate calculated by the following equation. [formula]
A: amount of LTB4 formed in the absence of the test compound
B: amount of LTB4 formed in the presence of the test compound
Experiments were carried out under the same conditions as those of the above-mentioned "Pharmacological Test".
In the case of `CCc1ccc(CSC[C@H](NC(=O)[C@H](C)CSC(=O)c2ccccc2)C(=O)O)cc1` [Compound No. 1-8, (2R)-2-[(2S)-3-(Benzoylthio)-2-methylpropionylamino]-3-(4-ethylbenzylthio)propionic acid], the IC50 turned out to be 120 nM.
Under `CCCc1ccc(CSC[C@H](NC(=O)[C@H](C)CSC(=O)c2ccccc2)C(=O)O)cc1` [Compound No. 1-9, (2R)-2-[(2S)-3-(Benzoylthio)-2-methylpropionylamino]-3-(4-propylbenzylthio)propionic acid] stands 170 nM; under `CC(C)c1ccc(CSC[C@H](NC(=O)[C@H](C)CSC(=O)c2ccccc2)C(=O)O)cc1` [Compound No. 1-10, (2R)-2-[(2S)-3-(Benzoylthio)-2-methylpropionylamino]-3-(4-isopropylbenzylthio)propionic acid], 120 nM; under `C[C@H](CSC(=O)c1ccccc1)C(=O)N[C@@H](CSCc1ccc(C(C)(C)C)cc1)C(=O)O` [Compound No. 1-11, (2R)-2-[(2S)-3-(Benzoylthio)-2-methylpropionylamino]-3-(4-tert-butylbenzylthio) propionic acid], 32 nM.
Under `C[C@H](CSC(=O)c1ccccc1)C(=O)N[C@@H](CSCc1ccc(C(F)(F)F)cc1)C(=O)O` [Compound No. 1-13, (2R)-2-[(2S)-3-(Benzoylthio)-2-methylpropionylamino]-3-(4-trifluoromethylbenzylthio)propionic acid] stands 100 nM; under `CSc1ccc(CSC[C@H](NC(=O)[C@H](C)CSC(=O)c2ccccc2)C(=O)O)cc1` [Compound No. 1-16, (2R)-2-[(2S)-3-(Benzoylthio)-2-methylpropionylamino]-3-(4-methylthiobenzylthio)propionic acid], 110 nM; under `C[C@H](CSC(=O)c1ccccc1)C(=O)N[C@@H](CSCc1ccc(OC(F)(F)F)cc1)C(=O)O` [Compound No. 1-18, (2R)-2-[(2S)-3-(Benzoylthio)-2-methylpropionylamino]-3-(4-trifluoromethoxybenzylthio)propionic acid], 100 nM.
Under `C[C@H](CSC(=O)c1ccccc1)C(=O)N[C@@H](CSCc1ccc(Cl)cc1)C(=O)O` [Compound No. 1-23, (2R)-2-[(2S)-3-(Benzoylthio)-2-methylpropionylamino]-3-(4-chlorobenzylthio)propionic acid] stands 300 nM; under `C[C@H](CSC(=O)c1ccccc1)C(=O)N[C@@H](CSCc1ccc(Br)cc1)C(=O)O` [Compound No. 1-24, (2R)-2-[(2S)-3-(Benzoylthio)-2-methylpropionylamino]-3-(4-bromobenzylthio)propionic acid], 310 nM.
Consider `C[C@H](CSC(=O)c1ccccc1)C(=O)N[C@@H](CSCc1ccc(I)cc1)C(=O)O` [Compound No. 1-25, (2R)-2-[(2S)-3-(Benzoylthio)-2-methylpropionylamino]-3-(4-iodobenzylthio)propionic acid], for which the IC50 worked out at 51 nM.
Under `C[C@H](CSC(=O)c1ccccc1)C(=O)N[C@@H](CSCc1ccc(S(C)(=O)=O)cc1)C(=O)O` [Compound No. 1-26, (2R)-2-[(2S)-3-(Benzoylthio)-2-methylpropionylamino]-3-(4-methylsulfonylbenzylthio)propionic acid] stands 200 nM; under `C[C@H](CSC(=O)c1ccccc1)C(=O)N[C@@H](CSCc1ccc([N+](=O)[O-])cc1)C(=O)O` [Compound No. 1-28, (2R)-2-[(2S)-3-(Benzoylthio)-2-methylpropionylamino]-3-(4-nitrobenzylthio)propionic acid], 290 nM.
Consider `CCc1ccc(CSC[C@H](NC(=O)[C@H](C)CS)C(=O)O)cc1` [Compound No. 2-8, (2R)-3-(4-Ethylbenzylthio)-2-[(2S)-3-mercapto-2-methylpropionylamino]propionic acid], for which the IC50 amounted to 280 nM.
As for `CCCc1ccc(CSC[C@H](NC(=O)[C@H](C)CS)C(=O)O)cc1` [Compound No. 2-9, (2R)-2-[(2S)-3-Mercapto-2-methylpropionylamino]-3-(4-propylbenzylthio)propionic acid], the IC50 is 72 nM.
In the case of `CC(C)c1ccc(CSC[C@H](NC(=O)[C@H](C)CS)C(=O)O)cc1` [Compound No. 2-10, (2R)-3-(4-Isopropylbenzylthio)-2-[(2S)-3-mercapto-2-methylpropionylamino]propionic acid], the IC50 is 200 nM.
Under `C[C@H](CS)C(=O)N[C@@H](CSCc1ccc(C(C)(C)C)cc1)C(=O)O` [Compound No. 2-11, (2R)-3-(4-tert-Butylbenzylthio)-2-[(2S)-3-mercapto-2-methylpropionylamino]propionic acid] stands 24 nM.
In the case of `CC(CS)C(=O)N[C@@H](CSCc1ccc(C(C)(C)C)cc1)C(=O)O` (stereo partly drawn) [Compound No. 2-12, (2R)-3-(4-tert-Butylbenzylthio)-2-[(2RS)-3-mercapto-2-5 methylpropionylamino]propionic acid], the IC50 came to 58 nM.
Turning to `C[C@H](CS)C(=O)N[C@@H](CSCc1ccc(C(F)(F)F)cc1)C(=O)O` [Compound No. 2-13, (2R)-2-[(2S)-3-Mercapto-2-methylpropionylamino]-3-(4-trifluoromethylbenzylthio)propionic acid], the IC50 is 140 nM.
Under `CSc1ccc(CSC[C@H](NC(=O)[C@H](C)CS)C(=O)O)cc1` [Compound No. 2-16, (2R)-2-[(2S)-3-Mercapto-2-methylpropionylamino]-3-(4-methylthiobenzylthio)propionic acid] stands 46 nM.
Under `C[C@H](CS)C(=O)N[C@@H](CSCc1ccc(I)cc1)C(=O)O` [Compound No. 2-25, (2R)-3-(4-Iodobenzylthio)-2-[(2S)-3-mercapto-2-methylpropionylamino]propionic acid] stands 15 nM; under `C[C@H](CS)C(=O)N[C@@H](CSCc1ccc(S(C)(=O)=O)cc1)C(=O)O` [Compound No. 2-26, (2R)-2-[(2S)-3-Mercapto-2-methylpropionylamino]-3-(4-methylsulfonylbenzylthio)propionic acid], 160 nM; under `CC(C)c1ccc(C(C)SC[C@H](NC(=O)[C@H](C)CS)C(=O)O)cc1` (stereo partly drawn) [Compound No. 2-30, (2R)-2-[(2S)-3-Mercapto-2-methylpropionylamino]-3-[(α-methyl-4-isopropyl)benzylthio]propionic acid], 55 nM.
Under `CC(C)c1ccc(C(C)(C)SC[C@H](NC(=O)[C@H](C)CS)C(=O)O)cc1` [Compound No. 2-32, (2R)-2-[(2S)-3-Mercapto-2-methylpropionylamino]-3-[(α,α-dimethyl-4-isopropyl)benzylthio]propionic acid] stands 25 nM; under `CCC(SC[C@H](NC(=O)[C@H](C)CS)C(=O)O)c1ccc(C(C)C)cc1` (stereo partly drawn) [Compound No. 2-33, (2R)-3-[(α-Ethyl-4-isopropyl)benzylthio]-2-[(2S)-3-mercapto-2-methylpropionylamino]propionic acid], 67 nM.
In the case of `CC(SC[C@H](NC(=O)[C@H](C)CS)C(=O)O)c1ccc(C(C)(C)C)cc1` (stereo partly drawn) [Compound No. 2-34, (2R)-3-[(4-tert-Butyl-α-methyl)benzylthio]-2-[(2R)-3-mercapto-2-methylpropionylamino]propionic acid], the IC50 came out at 68 nM.
Under `C[C@H](CS)C(=O)N[C@@H](CSCc1ccc(C2CCCCC2)cc1)C(=O)O` [Compound No. 2-35, (2R)-3-(4-Cyclohexylbenzylthio)-2-[(2S)-3-mercapto-2-methylpropionylamino]propionic acid] stands 79 nM.
